# From article PMC3822934 (Journal of Cellular and Molecular Medicine, 2012)
# Assay: Comparison of blood glucose lowering with glibenclamide
# Format: in vivo
# Settings: data not shown
smiles,measurement,value
COc1ccc(Cl)cc1C(=O)NCCc1ccc(S(=O)(=O)NC(=O)NC2CCCCC2)cc1 [glibenclamide],blood glucose lowering activity compared with EH-36,comparable blood glucose lowering activities
same,onset of the effect compared with EH-36,faster
